The values below come from US20230181536A1, “ANTICANCER COMBINATION THERAPY WITH N-(1-ACRYLOYL-AZETIDIN-3-YL)-2-((1H-INDAZOL-3-YL)AMINO)METHYL)-1H-IMIDAZOLE-5-CARBOXAMIDE INHIBITOR OF KRAS-G12C” (TAIHO PHARMACEUTICAL CO., LTD., priority 2020, published 2023).

SMILES strings stand for the structures.

T1 sequence (P01116 1-169 isoform P01116-2 G12C): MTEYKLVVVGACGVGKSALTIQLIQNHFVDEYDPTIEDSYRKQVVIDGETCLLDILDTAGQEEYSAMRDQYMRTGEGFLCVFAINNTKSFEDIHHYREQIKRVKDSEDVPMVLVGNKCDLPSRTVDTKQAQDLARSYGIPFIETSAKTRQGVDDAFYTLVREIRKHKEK

This experiment has as its target T1, KRAS G12C (Homo sapiens, UniProt P01116, G12C).
T1 construct: KRAS G12C (amino acid region: 1-169)
As to the kind of experiment: Inhibitory activity on the KRAS G12C nucleotide (GDP-GTP) exchange reaction. In kind it is biochemical. As to conditions: Bodipy FL GDP-bound KRAS G12C 25 nM; preincubation at 25° C. for 4 hours; SOS1 100 nM, GppNHp 1 μM, reaction for 30 minutes. Here is the method: Test Example 2: Evaluation of Inhibitory Activity of Compounds on the KRAS G12C Nucleotide (GDP-GTP) Exchange Reaction
The inhibitory activity of compounds on the exchange reaction of GDP into GppNHp in Bodipy (trademark) FL-bound KRAS G12C was examined by fluorescence measurement using human recombinant KRAS G12C and SOS1 proteins.
For the preparation of KRAS G12C to which Bodipy FL GDP was bound, first, 50 µM KRAS G12C (amino acid region: 1-169) and 1 mM Bodipy FL GDP (Invitrogen, G22360) were incubated for 1 hour in a buffer (20 mM Tris-HCl (pH 7.5), 50 mM NaCl, 1 mM DTT) in ice in the presence of 2.5 mM EDTA. Thereafter, MgCl2 with a final concentration of 10 mM was added, and the mixture was incubated at room temperature for 30 minutes. The protein was allowed to pass through a NAP-5 column to remove free nucleotides and was used for compound evaluation.
For the measurement of the inhibitory activity of compounds on nucleotide exchange reaction, first, the compound of the disclosure was diluted stepwise with dimethyl sulfoxide (DMSO). Subsequently, a solution of the gradually diluted compound of the disclosure in DMSO (the final concentration of DMSO: 5%) and KRAS G12C (25 nM) bound to Bodipy FL GDP were added to a reaction buffer (20 mM Tris-HCl (pH 7.5), 100 mM NaCl, 1 mM MgCl2, 2 mM DTT, 0.1% Tween20), followed by preincubation at 25° C. for 4 hours. Thereafter, Son of Sevenless Homolog 1 (SOS1, amino acid region: 564-1049) and GppNHp (GMPPNP, Jena Bioscience GmbH, NU-401-50) were added such that their final concentration was 100 nM and 1 μM respectively, followed by reaction for 30 minutes. The change in fluorescence intensity of Bodipy FL (excitation wavelength: 485 nm, fluorescence wavelength: 520 nm) immediately after the start of reaction and after 30 minutes from the start of reaction was standardized. The signal value for only DMSO was determined to be 0% inhibition, and the signal value for no addition of GppNHp was determined to be 100% inhibition. The compound concentration at which 50% inhibition is achieved was determined to be the IC50 (nM) and was calculated.
Turning to `CC#CC(=O)N1CC(NC(=O)c2c(C)nc(CNc3n[nH]c4cc(Cl)c(C(C)(C)C)cc34)n2C(C)C)C1` [Example 82, N-(1-(buty-2-noyl)azetidin-3-yl)-2-(((5-(tert-butyl)-6-chloro-1H-indazol-3-yl)amino)methyl)-1-isopropyl-4-methyl-1H-imidazole-5-carboxamide], the IC50 (commonly the concentration at which inhibition is half-maximal) was determined as 209 nM.
With `C=CC(=O)N1CC(NC(=O)c2c(F)nc(CNc3n[nH]c4cc(Cl)c(C(C)(C)C)cc34)n2C)C1` [Example 30, N-(1-acryloylazetidin-3-yl)-2-(((5-(tert-butyl)-6-chloro-1H-indazol-3-yl)amino)methyl)-4-fluoro-1-methyl-1H-imidazole-5-carboxamide], the half-maximal inhibitory concentration (IC50) is 11 nM.
Consider `C=CC(=O)N1CC(NC(=O)c2cnc(CNc3n[nH]c4cc(Cl)c(C(C)(C)C)cc34)s2)C1` [Example 8, N-(1-acryloylazetidin-3-yl)-2-(((5-(tert-butyl)-6-chloro-1H-indazol-3-yl)amino)methyl)thiazole-5-carboxamide], for which the IC50 was determined as 783 nM.
In turn, `C=CC(=O)N1CC(NC(=O)c2c(F)nc(CNc3n[nH]c4cc(Cl)c(C(C)(C)C)cc34)n2C(C)C)C1` [Example 34, N-(1-acryloylazetidin-3-yl)-2-(((5-(tert-butyl)-6-chloro-1H-indazol-3-yl)amino)methyl)-4-fluoro-1-isopropyl-1H-imidazole-5-carboxamide] gave an IC50 of 13 nM.
The value for `C=CC(=O)N1CC(NC(=O)c2c(C(F)(F)F)nc(CNc3n[nH]c4cc(Cl)c(C(C)(C)C)cc34)n2C(C)C)C1` [Example 32, N-(1-acryloylazetidin-3-yl)-2-(((5-(tert-butyl)-6-chloro-1H-indazol-3-yl)amino)methyl)-1-isopropyl-4-(trifluoromethyl)-1H-imidazole-5-carboxamide] was 50 nM.
As for `Cc1nc(CNc2n[nH]c3cc(Cl)c(C(C)(C)C)cc23)n(C)c1C(=O)NC1CN(C(=O)/C=C/CN(C)C)C1` [Example 80, (E)-2-(((5-(tert-butyl)-6-chloro-1H-indazol-3-yl)amino)methyl)-N-(1-(4-(dimethylamino)but-2-enoyl)azetidin-3-yl)-1,4-dimethyl-1H-imidazole-5-carboxamide], the midpoint of inhibition, the IC50, lay at 63 nM.
The value for `[2H]C([2H])(Nc1n[nH]c2cc(Cl)c(C(C)(C)C)cc12)c1nc(C)c(C(=O)NC2CN(C(=O)C=C)C2)n1C` [Example 5, N-(1-acryloylazetidin-3-yl)-2-(((5-(tert-butyl)-6-chloro-1H-indazol-3-yl)amino)methyl-d2)-1,4-dimethyl-1H-imidazole-5-carboxamide] was 10 nM.
Molecule `C=CC(=O)N1CC(NC(=O)c2c(C)nc(CNc3n[nH]c4cc(Cl)c(C(C)(C)C)cc34)n2CCOC)C1` [Example 14, N-(1-acryloylazetidin-3-yl)-2-(((5-(tert-butyl)-6-chloro-1H-indazol-3-yl)amino)methyl)-1-(2-methoxyethyl)-4-methyl-1H-imidazole-5-carboxamide] displayed an IC50 of 24 nM.
The result for `C=CC(=O)N1CCN(C(=O)c2c(C)nc(CNc3n[nH]c4cc(Cl)c(C(C)(C)C)cc34)n2C)CC1` [Example 50, 1-(4-(2-(((5-(Tert-butyl)-6-chloro-1H-indazol-3-yl)amino)methyl)-1,4-dimethyl-1H-imidazole-5-carbonyl)piperazin-1-yl)prop-2-en-1-one] reads 4280 nM; that for `C=CC(=O)N1CC(NC(=O)c2c(Cl)nc(CNc3n[nH]c4cc(Cl)c(C(C)(C)C)cc34)n2[C@@H]2CCOC2)C1` [Example 102, (R)-N-(1-acryloylazetidin-3-yl)-2-(((5-(tert-butyl)-6-chloro-1H-indazol-3-yl)amino)methyl)-4-chloro-1-(tetrahydrofuran-3-yl)-1H-imidazole-5-carboxamide], 5 nM.
The value for `C=CC(=O)N1CC(NC(=O)c2c(Cl)nc(CNc3n[nH]c4cc(Cl)c(C(C)(C)C)cc34)n2C2CCCCC2)C1` [Example 109, N-(1-acryloylazetidin-3-yl)-2-(((5-(tert-butyl)-6-chloro-1H-indazol-3-yl)amino)methyl)-4-chloro-1-cyclohexyl-1H-imidazole-5-carboxamide] was 23 nM; that for `C=CC(=O)N1CC(NC(=O)c2c(Cl)nc(CNc3n[nH]c4cc(Cl)c(C(C)(C)C)cc34)n2C2CCN(C)CC2)C1` [Example 103, N-(1-acryloylazetidin-3-yl)-2-(((5-(tert-butyl)-6-chloro-1H-indazol-3-yl)amino)methyl)-4-chloro-1-(1-methylpiperidin-4-yl)-1H-imidazole-5-carboxamide] was 5 nM; that for `CC(C)n1c(CNc2n[nH]c3cc(Cl)c(C(C)(C)C)cc23)nc(C(F)F)c1C(=O)NC1CN(C(=O)/C=C/CN(C)C)C1` [Example 84, (E)-2-(((5-(tert-butyl)-6-chloro-1H-indazol-3-yl)amino)methyl)-4-(difluoromethyl)-N-(1-(4-(dimethylamino)but-2-enoyl)azetidin-3-yl)-1-isopropyl-1H-imidazole-5-carboxamide] was 63 nM.
Turning to `C=CC(=O)N1CC(NC(=O)c2c(Cl)nc(CNc3n[nH]c4cc(Cl)c(C(C)(C)C)cc34)n2[C@H]2C[C@H](C)CC[C@H]2C(C)C)C1` [Example 111, N-(1-acryloylazetidin-3-yl)-2-(((5-(tert-butyl)-6-chloro-1H-indazol-3-yl)amino)methyl)-4-chloro-1-((1S,2S,5R)-2-isopropyl-5-methylcyclohexyl)-JH-imidazole-5-carboxamide], half-maximal inhibition (IC50) was put at 15 nM.
In turn, `C=CC(=O)N1CC(NC(=O)c2c(Cl)nc(CNc3n[nH]c4cc(Cl)c(C(C)(C)C)cc34)n2C2CCCN(CC(F)F)C2)C1` (stereo not drawn) [Example 117, N-(1-acryloylazetidin-3-yl)-2-(((5-(tert-butyl)-6-chloro-1H-indazol-3-yl)amino)methyl)-4-chloro-1-(1-(2,2-difluoroethyl)piperidin-3-yl)-1H-imidazole-5-carboxamide] yielded an IC50 of 9 nM.
For the molecule `C=CC(=O)N1CC(NC(=O)c2c(C)c(CNc3n[nH]c4cc(Cl)c(C(C)(C)C)cc34)nn2C)C1` [Example 10, N-(1-acryloylazetidin-3-yl)-3-(((5-(tert-butyl)-6-chloro-1H-indazol-3-yl)amino)methyl)-1,4-dimethyl-1H-pyrazole-5-carboxamide], the IC50 is 129 nM.
The value for `C=CC(=O)N1CC(NC(=O)c2c(Cl)nc(CNc3n[nH]c4cc(Cl)c(C(C)(C)C)cc34)n2[C@@H]2CCN(c3ccccn3)C2)C1` [Example 124, (R)-N-(1-acryloylazetidin-3-yl)-2-(((5-(tert-butyl)-6-chloro-1H-indazol-3-yl)amino)methyl)-4-chloro-1-(1-(pyridin-2-yl)pyrrolidin-3-yl)-1H-imidazole-5-carboxamide] was 6 nM; that for `C=CC(=O)N1CC(NC(=O)c2c(Cl)nc(CNc3n[nH]c4cc(Cl)c(C(C)(C)C)cc34)n2[C@@H]2CCN(C3CC3)C2)C1` [Example 120, (R)-N-(1-acryloylazetidin-3-yl)-2-(((5-(tert-butyl)-6-chloro-1H-indazol-3-yl)amino)methyl)-4-chloro-1-(1-cyclopropylpyrrolidin-3-yl)-1H-imidazole-5-carboxamide] was 6 nM; that for `C=CC(=O)N1C[C@@H](CC#N)[C@@H](NC(=O)c2c(C)nc(CNc3n[nH]c4cc(Cl)c(C(C)(C)C)cc34)n2C)C1` [Example 65, N-((3R,4R)-1-acryloyl-4-(cyanomethyl)pyrrolidin-3-yl)-2-(((5-(tert-butyl)-6-chloro-1H-indazol-3-yl)amino)methyl)-1,4-dimethyl-1H-imidazole-5-carboxamide] was 19 nM.
As for `C=CC(=O)N1CC(NC(=O)c2c(Cl)nc(CNc3n[nH]c4cc(Cl)c(C(C)(C)C)cc34)n2C2CCCN(C)C2)C1` (stereo not drawn) [Example 118, N-(1-acryloylazetidin-3-yl)-2-(((5-(tert-butyl)-6-chloro-1H-indazol-3-yl)amino)methyl)-4-chloro-1-(1-methylpiperidin-3-yl)-1H-imidazole-5-carboxamide], the IC50 was determined as 5 nM.
The molecule `C=CC(=O)N1CC(NC(=O)c2c(Cl)nc(CNc3n[nH]c4cc(Cl)c(C(C)(C)C)cc34)n2[C@@H]2CCN(C3COC3)C2)C1` [Example 121, (R)-N-(1-acryloylazetidin-3-yl)-2-(((5-(tert-butyl)-6-chloro-1H-indazol-3-yl)amino)methyl)-4-chloro-1-(1-(oxetan-3-yl)pyrrolidin-3-yl)-1H-imidazole-5-carboxamide] displayed an IC50 of 5 nM.
